Assay results as given in paper PMC12079163 (Drug Development Research, 2025).
“And” between values parts separate entries of the source, which are not always exact repeats. Identical values can stand only once. Like-named read-outs stand apart in the source and are kept apart here.

How the values were obtained:
MOLM14 cells = test: alamarBlue cell metabolism/viability assay, MOLM14; type: cell-based; settings: Homo sapiens
From the text: (§1) As described previously, MOLM14 and MV4;11 cell lines (both human AML cell lines harboring both mixed‐lineage‐leukemia (KMT2A) rearrangement and FLT3‐ITD mutations) were obtained from DSMZ (Branschweig, DEU) and ATCC (Manassas, VA), respectively (Goodis et al. [2024]; Moses et al. [2021]); MV4;11 BCL‐2 over‐expressing (OE) cells were generated via lentiviral transduction as described previously (Empty Vector AddGene #227688; BLC‐2 OE AddGene #227690) (Goodis et al. [2024]).
(§2) Cell lines were cultured in RPMI 1640 media (Cellgro, # MDT‐10‐040‐CV) containing 10% fetal bovine serum (Gemini BioProducts #100‐106) and passaged twice per week to maintain cultures in log‐phase‐growth. Upon receipt or derivation, cell lines were expanded and multiple aliquots cryopreserved in DMSO‐containing medium in the vapor phase of liquid nitrogen. Cells were genetically authenticated and confirmed to be mycoplasma‐negative before cryopreservation. Cells from a given cryopreserved aliquot were cultured for no more than 3–4 months.
(§3) AnnV/7AAD assays were assessed by flow cytometry and analyzed using FlowLogic software v8.7.
(§4) Our dual inhibitors were next evaluated in an alamarBlue^TM cell metabolism/viability assay against 3 human AML cell lines: MOLM14, MV4;11, and MV4;11 BCL‐2 overexpressing (OE). […] However, pleasingly, several of our top compounds based on the cell‐free assay results also performed well in the AML cell‐based metabolism/viability assays.

MV4;11 cells [1] = test: Annexin V/7AAD apoptosis/death assay by flow cytometry; type: cell-based, human; settings: 200 nM; for viability at 0.2 µM: Homo sapiens, 48 h, MV4;11, in Figure 2, read-out: viable cells (AnnV‐/7AAD‐), lower left quadrant
Method: as §3
Figure 2 Apoptotic cell death of MV4;11 AML cells. […] As a negative control, an equi‐volume of DMSO‐treated sample was also assessed. Flow cytometric dot plots of 200 nM‐treated MV4;11 cells stained with Annexin‐V and 7AAD depict the gating strategy used to delineate viable cells (AnnV‐/7AAD‐), early apoptotic cells (AnnV+/7AAD‐), and late apoptotic cells (AnnV+/7AAD +).

MV4;11 cells [2] = test: alamarBlue cell metabolism/viability assay, MV4;11; type: cell-based, human; settings: for IC50: at least triplicate, errors are SEMs
From the text: as §1, §2, §3, §4

BCL‐2 = target: T1, BCL‐2 (Homo sapiens, UniProt P10415); test: BCL‐2 TR‐FRET assay (BPS Bioscience 50222, run by Nanosyn); type: binding; settings: cell‐free TR‐FRET assay, duplicate, errors are SEMs
T1 construct: purchased BPS Bioscience (assay run by Nanosyn) 50222

[3] = test system: MV4;11 BCL‐2 over‐expressing (OE) cells; test: alamarBlue cell metabolism/viability assay, MV4;11 BCL‐2 OE; type: cell-based; settings: Homo sapiens
From the text: as §1, §2, §3, §4

HDAC1 = target: T2, HDAC1 (Homo sapiens, UniProt Q13547); test: HDAC1 fluorogenic assay (BPS Bioscience 50061, run by Nanosyn); type: biochemical; settings: for IC50: cell‐free fluorogenic assay, duplicate, errors are SEMs
T2 construct: purchased BPS Bioscience (assay run by Nanosyn) 50061

HDAC6 = target: T3, HDAC6 (Homo sapiens, UniProt Q9UBN7); test: HDAC6 fluorogenic assay (BPS Bioscience 50076, run by Nanosyn); settings: for selectivity for HDAC6 over HDAC1 (HDAC6/1 selectivity): ratio of IC50 values
T3 sequence (Q9UBN7 1-1215): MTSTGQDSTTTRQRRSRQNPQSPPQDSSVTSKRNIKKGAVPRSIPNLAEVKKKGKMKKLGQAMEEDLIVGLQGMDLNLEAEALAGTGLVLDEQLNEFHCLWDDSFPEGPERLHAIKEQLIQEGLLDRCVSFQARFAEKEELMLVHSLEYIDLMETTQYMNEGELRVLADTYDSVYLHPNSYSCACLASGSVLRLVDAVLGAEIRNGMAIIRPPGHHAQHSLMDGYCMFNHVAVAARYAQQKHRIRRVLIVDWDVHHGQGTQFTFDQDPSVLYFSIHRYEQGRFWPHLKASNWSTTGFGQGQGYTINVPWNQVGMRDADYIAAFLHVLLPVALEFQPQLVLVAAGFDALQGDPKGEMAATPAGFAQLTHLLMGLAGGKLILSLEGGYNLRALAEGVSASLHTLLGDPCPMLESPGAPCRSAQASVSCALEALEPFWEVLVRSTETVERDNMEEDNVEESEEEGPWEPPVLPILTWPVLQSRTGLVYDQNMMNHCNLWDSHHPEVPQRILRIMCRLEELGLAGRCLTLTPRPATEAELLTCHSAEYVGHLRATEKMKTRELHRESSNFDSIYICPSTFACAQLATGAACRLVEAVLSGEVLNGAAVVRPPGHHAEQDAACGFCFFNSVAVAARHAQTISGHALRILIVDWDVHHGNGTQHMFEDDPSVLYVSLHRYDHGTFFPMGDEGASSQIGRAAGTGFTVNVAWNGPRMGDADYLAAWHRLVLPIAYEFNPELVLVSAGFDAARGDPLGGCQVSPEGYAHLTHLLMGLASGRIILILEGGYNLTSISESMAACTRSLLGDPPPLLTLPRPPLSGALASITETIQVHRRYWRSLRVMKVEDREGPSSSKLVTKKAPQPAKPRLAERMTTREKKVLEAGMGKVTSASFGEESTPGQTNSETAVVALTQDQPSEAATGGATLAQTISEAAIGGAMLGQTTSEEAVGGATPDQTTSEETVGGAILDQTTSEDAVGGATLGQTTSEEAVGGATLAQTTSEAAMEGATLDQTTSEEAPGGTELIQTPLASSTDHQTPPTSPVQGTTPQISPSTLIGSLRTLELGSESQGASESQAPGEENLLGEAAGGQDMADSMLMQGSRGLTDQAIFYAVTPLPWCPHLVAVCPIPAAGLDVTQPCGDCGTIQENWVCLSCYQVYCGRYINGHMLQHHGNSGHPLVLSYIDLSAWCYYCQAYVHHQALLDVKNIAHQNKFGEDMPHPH

[4] = Solubility under the assay conditions; type: physicochemical; settings: HDAC, BCL‐2 and cell assays; data not reliable, not reported
[5] = MOLM-14, at least triplicate, errors are SEMs, read-out: IC50 MOLM‐14
[6] = Homo sapiens, MV4-11, alamarBlue
[7] = MV4-11, alamarBlue, at least triplicate, errors are SEMs, read-out: IC50 MV4;11 BCL‐2 OE

T1 sequence (P10415 whole entry): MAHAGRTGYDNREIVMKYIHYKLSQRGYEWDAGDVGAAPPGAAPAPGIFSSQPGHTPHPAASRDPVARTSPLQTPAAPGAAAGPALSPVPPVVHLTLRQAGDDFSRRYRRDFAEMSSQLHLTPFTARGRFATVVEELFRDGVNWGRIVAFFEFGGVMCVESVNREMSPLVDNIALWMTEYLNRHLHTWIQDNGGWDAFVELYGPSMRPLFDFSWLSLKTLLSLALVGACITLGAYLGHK
T2 sequence (Q13547 whole entry): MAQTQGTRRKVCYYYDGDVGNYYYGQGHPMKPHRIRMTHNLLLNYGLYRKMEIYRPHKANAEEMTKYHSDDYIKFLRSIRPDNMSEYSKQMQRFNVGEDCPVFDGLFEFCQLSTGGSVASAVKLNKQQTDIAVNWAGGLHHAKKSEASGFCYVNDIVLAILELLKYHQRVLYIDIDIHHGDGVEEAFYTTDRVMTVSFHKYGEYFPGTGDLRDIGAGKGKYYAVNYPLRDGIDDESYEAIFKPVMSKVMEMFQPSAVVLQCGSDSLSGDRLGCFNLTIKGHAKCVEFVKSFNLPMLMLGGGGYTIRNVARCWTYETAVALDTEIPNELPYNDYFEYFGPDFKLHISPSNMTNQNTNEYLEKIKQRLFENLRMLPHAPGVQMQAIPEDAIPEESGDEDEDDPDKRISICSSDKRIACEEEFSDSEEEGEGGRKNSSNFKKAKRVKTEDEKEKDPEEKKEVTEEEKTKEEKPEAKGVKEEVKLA

Row | Compound | IC50 (MOLM14 cells; [5]) [nM] | induction of apoptosis compared with venetoclax (MV4;11 cells [1]; MV4;11) | viability at 0.2 µM (MV4;11 cells [1]) [%] | IC50 (MV4;11 cells [2]; [6]) [nM] | IC50 (BCL‐2) | IC50 [3, 7] [nM] | IC50 (HDAC1) [nM] | selectivity for HDAC1 over HDAC6 (HDAC1; ratio of IC50 values) [fold] | IC50 (HDAC6) [nM] | selectivity for HDAC6 over HDAC1 (HDAC6/1 selectivity) (HDAC6) | solubility under the assay conditions [4] | IC50 (MOLM14 cells; MOLM-14, read-out: IC50 MOLM14 cells) [nM] | decrease in % AnnV‐/7AAD‐ (viable) cells (MV4;11 cells [1]; MV4;11) | IC50 (MV4;11 cells [2]; alamarBlue) [nM] | IC50 ([3]; MV4-11, alamarBlue, read-out: IC50 MV4;11 OE BCL‐2 cell line) [nM] | fold less active than venetoclax, MV4;11 cell metabolism/viability (MV4;11 cells [2]; IC50 compared with venetoclax)
1 | CC1(C)CCC(CN2CCN(c3ccc(C(=O)NS(=O)(=O)c4ccc(NCc5ccc(C(=O)Nc6ccccc6N)cc5)c([N+](=O)[O-])c4)c(Oc4cnc5[nH]ccc5c4)c3)CC2)=C(c2ccc(Cl)cc2)C1 [BD‐4‐213, 2‐((1H‐pyrrolo[2,3‐b]pyridin‐5‐yl)oxy)‐N‐((4‐((4‐((2‐aminophenyl)carbamoyl)benzyl)amino)‐3‐nitrophenyl)sulfonyl)‐4‐(4‐((4′‐chloro‐5,5‐dimethyl‐3,4,5,6‐tetrahydro‐[1,1′‐biphenyl]‐2‐yl)methyl)piperazin‐1‐yl)benzamide] | 1630 ± 36 | induced apoptosis similar to venetoclax | 43.9 | 19.3 ± 5.6 | < 1 nM and 0.539 nM | 342 ± 55 | 2880 ± 570 | > 10 | > 30000 | – | – | – | – | – | – | –
2 | CC1(C)CCC(CN2CCN(c3ccc(C(=O)NS(=O)(=O)c4ccc(NCC5CCN(c6ccc(C(=O)NO)cc6)CC5)c([N+](=O)[O-])c4)c(Oc4cnc5[nH]ccc5c4)c3)CC2)=C(c2ccc(Cl)cc2)C1 [AMC‐4‐154, 2‐((1H‐pyrrolo[2,3‐b]pyridin‐5‐yl)oxy)‐4‐(4‐((4′‐chloro‐5,5‐dimethyl‐3,4,5,6‐tetrahydro‐[1,1′‐biphenyl]‐2‐yl)methyl)piperazin‐1‐yl)‐N‐((4‐(((1‐(4‐(hydroxycarbamoyl)phenyl)piperidin‐4‐yl)methyl)amino)‐3‐nitrophenyl)sulfonyl)benzamide] | > 10000 | induced apoptosis similar to venetoclax | 49.2 | 66.2 ± 13.6 | 0.554 ± 0.045 nM | 631 ± 50 | > 30000 | – | 8710 ± 1890 | > 3 fold | – | – | – | – | – | –
3 | CC1(C)CCC(CN2CCN(c3ccc(C(=O)NS(=O)(=O)c4ccc(NCC5CCN(c6c(F)cc(C(=O)NO)cc6F)CC5)c([N+](=O)[O-])c4)c(Oc4cnc5[nH]ccc5c4)c3)CC2)=C(c2ccc(Cl)cc2)C1 [AMC‐4‐101, 4‐(4‐(((4‐(N‐(2‐((1H‐pyrrolo[2,3‐b]pyridin‐5‐yl)oxy)‐4‐(4‐((4′‐chloro‐5,5‐dimethyl‐3,4,5,6‐tetrahydro‐[1,1′‐biphenyl]‐2‐yl)methyl)piperazin‐1‐yl)benzoyl)sulfamoyl)‐2‐nitrophenyl)amino)methyl)piperidin‐1‐yl)‐3,5‐difluoro‐N‐hydroxybenzamide] | – | – | – | – | – | – | – | – | – | – | Limited solubility | – | – | – | – | –
4 | CC1(C)CCC(CN2CCN(c3ccc(C(=O)NS(=O)(=O)c4ccc(NCCNC(=O)c5ccc(C(=O)NO)cc5)c([N+](=O)[O-])c4)c(Oc4cnc5[nH]ccc5c4)c3)CC2)=C(c2ccc(Cl)cc2)C1 [SF‐8‐083, N ^1‐(2‐((4‐(N‐(2‐((1H‐pyrrolo[2,3‐b]pyridin‐5‐yl)oxy)‐4‐(4‐((4′‐chloro‐5,5‐dimethyl‐3,4,5,6‐tetrahydro‐[1,1′‐biphenyl]‐2‐yl)methyl)piperazin‐1‐yl)benzoyl)sulfamoyl)‐2‐nitrophenyl)amino)ethyl)‐N ^4‐hydroxyterephthalamide] | – | – | – | > 10000 | – | – | 11600 ± 1760 | – | 418 ± 34 | ~ 30 fold | – | – | – | – | – | –
5 | CC1(C)CCC(CN2CCN(c3ccc(C(=O)NS(=O)(=O)c4ccc(NCCNC(=O)c5ccc(/C=C/C(=O)NO)cc5)c([N+](=O)[O-])c4)c(Oc4cnc5[nH]ccc5c4)c3)CC2)=C(c2ccc(Cl)cc2)C1 [SF‐8‐062, (E)‐2‐((1H‐pyrrolo[2,3‐b]pyridin‐5‐yl)oxy)‐4‐(4‐((4′‐chloro‐5,5‐dimethyl‐3,4,5,6‐tetrahydro‐[1,1′‐biphenyl]‐2‐yl)methyl)piperazin‐1‐yl)‐N‐((4‐((2‐(4‐(3‐(hydroxyamino)‐3‐oxoprop‐1‐en‐1‐yl)benzamido)ethyl)amino)‐3‐nitrophenyl)sulfonyl)benzamide] | – | – | – | > 10000 | – | – | 6140 ± 1240 | – | – | about 20 fold | – | – | – | – | – | –
6 | CC1(C)CCC(CN2CCN(c3ccc(C(=O)NS(=O)(=O)c4ccc(NCCNc5ncc(C(=O)NO)cn5)c([N+](=O)[O-])c4)c(Oc4cnc5[nH]ccc5c4)c3)CC2)=C(c2ccc(Cl)cc2)C1 [BD‐4‐208, 2‐((2‐((4‐(N‐(2‐((1H‐pyrrolo[2,3‐b]pyridin‐5‐yl)oxy)‐4‐(4‐((4′‐chloro‐5,5‐dimethyl‐3,4,5,6‐tetrahydro‐[1,1′‐biphenyl]‐2‐yl)methyl)piperazin‐1‐yl)benzoyl)sulfamoyl)‐2‐nitrophenyl)amino)ethyl)amino)‐N‐hydroxypyrimidine‐5‐carboxamide] | – | – | – | > 10000 | – | – | 463 ± 60 | – | 149 ± 20 | ~ 3 fold | – | – | – | – | – | –
7 | CC1(C)CCC(CN2CCN(c3ccc(C(=O)NS(=O)(=O)c4ccc(NCC5CCOCC5)c([N+](=O)[O-])c4)c(Oc4cnc5[nH]ccc5c4)c3)CC2)=C(c2ccc(Cl)cc2)C1 [Venetoclax, venetoclax, reference compound] | 1720 ± 59 | – | 49.4 | 82 | – | 1020 ± 177 | > 30000 | – | > 30000 | – | – | 1700 | ~ 50% | 82.8 ± 16.7 | 1000 | –
8 | CC1(C)CCC(CN2CCN(c3ccc(C(=O)NS(=O)(=O)c4ccc(NCc5ccc(C(=O)NO)cc5)c([N+](=O)[O-])c4)c(Oc4cnc5[nH]ccc5c4)c3)CC2)=C(c2ccc(Cl)cc2)C1 [SF‐8‐038, 2‐((1H‐pyrrolo[2,3‐b]pyridin‐5‐yl)oxy)‐4‐(4‐((4′‐chloro‐5,5‐dimethyl‐3,4,5,6‐tetrahydro‐[1,1′‐biphenyl]‐2‐yl)methyl)piperazin‐1‐yl)‐N‐((4‐((4‐(hydroxycarbamoyl)benzyl)amino)‐3‐nitrophenyl)sulfonyl)benzamide] | > 10000 | somewhat less potent | 58.5 | 285 ± 81 | < 1 nM and 0.617 nM | 2450 ± 96 | > 30000 | – | 368 ± 85 | > 80 fold | – | – | – | – | – | ~ 3 fold
